Read-outs that look alike come from different tables or passages of the source.
What was measured:
[1] = biological target: EGFR L858R/C797S (Homo sapiens, UniProt P00533, C797S/L858R); test: Biochemical EGFR kinase assay (Lance Ultra TR-FRET), double mutant L858R/C797S
Procedure, shortened: (§1)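 Kinase activity is measured by TR-FRET phosphopeptide detection. Compounds span 0.003 μM to 10 μM; the 1 h reaction at room temperature is quenched with EDTA, then labelled antibody (2 nM) is incubated 60 min before reading.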

[2] = biological target: EGFR del19/T790M/C797S (Homo sapiens, UniProt P00533, C797S/DEL746-750/T790M); test: Biochemical EGFR kinase assay (Lance Ultra TR-FRET), triple mutant del19/T790M/C797S
Procedure, shortened: as §1

[3] = biological target: EGFR wildtype (WT) (Homo sapiens, UniProt P00533); test: Biochemical EGFR kinase assay (Lance Ultra TR-FRET), wildtype
EGFR wildtype (WT), sequence (P00533 25-1210): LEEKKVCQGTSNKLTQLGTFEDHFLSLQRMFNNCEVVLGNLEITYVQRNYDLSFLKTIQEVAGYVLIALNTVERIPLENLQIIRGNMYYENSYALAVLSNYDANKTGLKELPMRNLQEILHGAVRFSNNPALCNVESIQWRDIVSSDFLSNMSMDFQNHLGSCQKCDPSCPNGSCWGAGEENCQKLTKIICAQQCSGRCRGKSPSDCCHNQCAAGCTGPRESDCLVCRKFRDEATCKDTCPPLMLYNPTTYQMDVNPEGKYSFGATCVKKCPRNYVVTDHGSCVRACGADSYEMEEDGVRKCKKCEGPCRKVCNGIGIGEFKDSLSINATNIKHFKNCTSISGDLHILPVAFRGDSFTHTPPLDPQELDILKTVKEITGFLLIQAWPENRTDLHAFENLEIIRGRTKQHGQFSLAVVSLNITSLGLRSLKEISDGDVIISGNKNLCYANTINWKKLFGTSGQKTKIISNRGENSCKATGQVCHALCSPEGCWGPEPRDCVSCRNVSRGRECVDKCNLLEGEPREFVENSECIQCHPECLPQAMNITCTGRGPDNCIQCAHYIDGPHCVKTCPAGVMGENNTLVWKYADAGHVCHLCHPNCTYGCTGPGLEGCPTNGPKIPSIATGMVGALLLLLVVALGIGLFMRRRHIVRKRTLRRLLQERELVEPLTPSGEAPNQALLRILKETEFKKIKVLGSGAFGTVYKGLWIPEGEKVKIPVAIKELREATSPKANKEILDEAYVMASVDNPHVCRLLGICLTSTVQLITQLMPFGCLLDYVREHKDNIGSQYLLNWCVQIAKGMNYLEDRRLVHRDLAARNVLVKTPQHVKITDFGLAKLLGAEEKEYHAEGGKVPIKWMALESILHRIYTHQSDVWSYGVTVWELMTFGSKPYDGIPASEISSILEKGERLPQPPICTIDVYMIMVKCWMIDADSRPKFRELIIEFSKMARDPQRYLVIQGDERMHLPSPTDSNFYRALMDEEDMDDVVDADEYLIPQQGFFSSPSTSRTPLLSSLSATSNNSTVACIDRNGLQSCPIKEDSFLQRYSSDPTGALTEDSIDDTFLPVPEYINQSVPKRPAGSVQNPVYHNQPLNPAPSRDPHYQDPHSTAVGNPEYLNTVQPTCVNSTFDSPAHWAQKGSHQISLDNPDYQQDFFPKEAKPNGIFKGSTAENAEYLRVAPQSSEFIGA
Procedure, shortened: as §1

[4] = biological target: EGFR del19/C797S (Homo sapiens, UniProt P00533, C797S/DEL746-750); test: Biochemical EGFR kinase assay (Lance Ultra TR-FRET), double mutant del19/C797S
EGFR del19/C797S, sequence (P00533 with tags, fused parts or gaps DEL746-750/C797S): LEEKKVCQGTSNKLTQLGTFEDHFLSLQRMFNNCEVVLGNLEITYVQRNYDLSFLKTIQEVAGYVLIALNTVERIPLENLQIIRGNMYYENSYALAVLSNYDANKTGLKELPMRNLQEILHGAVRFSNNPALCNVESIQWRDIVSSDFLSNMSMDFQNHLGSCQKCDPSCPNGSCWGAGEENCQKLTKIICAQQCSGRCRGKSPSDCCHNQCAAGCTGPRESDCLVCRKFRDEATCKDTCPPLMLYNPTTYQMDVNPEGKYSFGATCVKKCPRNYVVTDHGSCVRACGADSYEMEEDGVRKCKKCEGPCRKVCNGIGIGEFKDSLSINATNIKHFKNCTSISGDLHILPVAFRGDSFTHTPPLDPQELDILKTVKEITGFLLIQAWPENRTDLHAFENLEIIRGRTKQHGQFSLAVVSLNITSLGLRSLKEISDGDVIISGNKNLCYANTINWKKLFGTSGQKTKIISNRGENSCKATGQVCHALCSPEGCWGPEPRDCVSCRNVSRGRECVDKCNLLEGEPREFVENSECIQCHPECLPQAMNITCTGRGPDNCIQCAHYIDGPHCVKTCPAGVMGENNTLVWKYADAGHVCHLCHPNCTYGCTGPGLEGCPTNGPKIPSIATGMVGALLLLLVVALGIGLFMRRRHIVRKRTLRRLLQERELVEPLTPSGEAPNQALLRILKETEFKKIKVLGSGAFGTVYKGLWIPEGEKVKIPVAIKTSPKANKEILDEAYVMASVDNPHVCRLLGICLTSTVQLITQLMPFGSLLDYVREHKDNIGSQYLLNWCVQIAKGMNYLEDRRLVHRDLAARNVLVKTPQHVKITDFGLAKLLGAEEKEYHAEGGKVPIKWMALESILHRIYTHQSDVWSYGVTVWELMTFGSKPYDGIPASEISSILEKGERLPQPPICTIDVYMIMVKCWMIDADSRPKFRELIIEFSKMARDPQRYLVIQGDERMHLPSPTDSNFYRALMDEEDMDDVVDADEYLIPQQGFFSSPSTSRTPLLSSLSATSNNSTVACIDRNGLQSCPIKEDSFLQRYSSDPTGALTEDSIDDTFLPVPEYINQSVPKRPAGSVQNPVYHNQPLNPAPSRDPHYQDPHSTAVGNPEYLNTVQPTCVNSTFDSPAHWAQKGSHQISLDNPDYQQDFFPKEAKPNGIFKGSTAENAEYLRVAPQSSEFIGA
Procedure, shortened: as §1

[5] = biological target: EGFR L858R/T790M/C797S (Homo sapiens, UniProt P00533, C797S/L858R/T790M); test: Biochemical EGFR kinase assay (Lance Ultra TR-FRET), triple mutant L858R/T790M/C797S
EGFR L858R/T790M/C797S, sequence (P00533 25-1210 T790M/C797S/L858R): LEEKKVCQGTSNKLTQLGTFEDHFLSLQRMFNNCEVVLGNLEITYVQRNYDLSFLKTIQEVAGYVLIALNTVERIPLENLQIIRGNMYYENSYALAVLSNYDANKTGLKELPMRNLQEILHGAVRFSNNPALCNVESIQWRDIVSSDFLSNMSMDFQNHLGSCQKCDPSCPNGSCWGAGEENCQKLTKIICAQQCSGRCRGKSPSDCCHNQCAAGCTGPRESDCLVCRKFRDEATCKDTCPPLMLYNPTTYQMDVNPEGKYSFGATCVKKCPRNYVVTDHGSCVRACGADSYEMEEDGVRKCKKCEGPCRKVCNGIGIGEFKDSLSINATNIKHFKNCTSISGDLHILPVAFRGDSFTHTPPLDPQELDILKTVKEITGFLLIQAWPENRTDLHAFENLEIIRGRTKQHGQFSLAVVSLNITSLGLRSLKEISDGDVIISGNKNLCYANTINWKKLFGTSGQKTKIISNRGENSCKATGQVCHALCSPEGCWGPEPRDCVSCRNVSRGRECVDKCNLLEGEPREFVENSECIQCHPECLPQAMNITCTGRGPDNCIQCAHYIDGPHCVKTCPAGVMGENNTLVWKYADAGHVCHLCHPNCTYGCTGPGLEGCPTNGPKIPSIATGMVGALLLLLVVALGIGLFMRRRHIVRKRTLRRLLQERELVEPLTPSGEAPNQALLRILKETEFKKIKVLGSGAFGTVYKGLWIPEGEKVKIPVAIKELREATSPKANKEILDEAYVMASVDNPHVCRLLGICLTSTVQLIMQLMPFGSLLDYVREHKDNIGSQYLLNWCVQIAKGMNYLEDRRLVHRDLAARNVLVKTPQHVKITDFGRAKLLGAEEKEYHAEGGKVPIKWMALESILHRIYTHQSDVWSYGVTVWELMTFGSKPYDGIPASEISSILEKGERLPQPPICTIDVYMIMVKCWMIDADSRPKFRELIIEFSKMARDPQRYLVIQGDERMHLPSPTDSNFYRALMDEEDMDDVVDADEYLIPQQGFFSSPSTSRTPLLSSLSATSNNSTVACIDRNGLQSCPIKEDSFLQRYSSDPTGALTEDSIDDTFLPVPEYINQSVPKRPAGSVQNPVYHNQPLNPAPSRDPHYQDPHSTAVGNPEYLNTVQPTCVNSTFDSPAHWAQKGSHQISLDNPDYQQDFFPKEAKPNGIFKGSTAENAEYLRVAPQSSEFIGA
Procedure, shortened: as §1

[6] = IC50 L858R/C797S (nM) 100 μM ATP, 100 μM ATP
[7] = Km ATP, read-out: IC50 L858R/C797S (nM) Km ATP
[8] = IC50 del19/T790M/C797S (nM) 100 μM ATP, 100 μM ATP
[9] = Km ATP, read-out: IC50 del19/T790M/C797S (nM) Km ATP
[10] = IC50 WT (nM) 100 μM ATP, 100 μM ATP
[11] = Km ATP, read-out: IC50 WT (nM) Km ATP
[12] = IC50 del19/C797S (nM) 100 μM ATP, 100 μM ATP
[13] = Km ATP, read-out: IC50 del19/C797S (nM) Km ATP
[14] = IC50 L858R/T790M/C797S (nM) 100 μM ATP, 100 μM ATP
[15] = Km ATP, read-out: IC50 L858R/T790M/C797S (nM) Km ATP
[16] = Km ATP, read-out: IC50 L858R/C797S, Km ATP
[17] = Km ATP, read-out: IC50 del19/T790M/C797S, Km ATP
[18] = Km ATP, read-out: IC50 WT, Km ATP
[19] = Km ATP, read-out: IC50 del19/C797S, Km ATP
[20] = Km ATP, read-out: IC50 L858R/T790M/C797S, Km ATP

EGFR L858R/C797S, sequence (P00533 25-1210 C797S/L858R): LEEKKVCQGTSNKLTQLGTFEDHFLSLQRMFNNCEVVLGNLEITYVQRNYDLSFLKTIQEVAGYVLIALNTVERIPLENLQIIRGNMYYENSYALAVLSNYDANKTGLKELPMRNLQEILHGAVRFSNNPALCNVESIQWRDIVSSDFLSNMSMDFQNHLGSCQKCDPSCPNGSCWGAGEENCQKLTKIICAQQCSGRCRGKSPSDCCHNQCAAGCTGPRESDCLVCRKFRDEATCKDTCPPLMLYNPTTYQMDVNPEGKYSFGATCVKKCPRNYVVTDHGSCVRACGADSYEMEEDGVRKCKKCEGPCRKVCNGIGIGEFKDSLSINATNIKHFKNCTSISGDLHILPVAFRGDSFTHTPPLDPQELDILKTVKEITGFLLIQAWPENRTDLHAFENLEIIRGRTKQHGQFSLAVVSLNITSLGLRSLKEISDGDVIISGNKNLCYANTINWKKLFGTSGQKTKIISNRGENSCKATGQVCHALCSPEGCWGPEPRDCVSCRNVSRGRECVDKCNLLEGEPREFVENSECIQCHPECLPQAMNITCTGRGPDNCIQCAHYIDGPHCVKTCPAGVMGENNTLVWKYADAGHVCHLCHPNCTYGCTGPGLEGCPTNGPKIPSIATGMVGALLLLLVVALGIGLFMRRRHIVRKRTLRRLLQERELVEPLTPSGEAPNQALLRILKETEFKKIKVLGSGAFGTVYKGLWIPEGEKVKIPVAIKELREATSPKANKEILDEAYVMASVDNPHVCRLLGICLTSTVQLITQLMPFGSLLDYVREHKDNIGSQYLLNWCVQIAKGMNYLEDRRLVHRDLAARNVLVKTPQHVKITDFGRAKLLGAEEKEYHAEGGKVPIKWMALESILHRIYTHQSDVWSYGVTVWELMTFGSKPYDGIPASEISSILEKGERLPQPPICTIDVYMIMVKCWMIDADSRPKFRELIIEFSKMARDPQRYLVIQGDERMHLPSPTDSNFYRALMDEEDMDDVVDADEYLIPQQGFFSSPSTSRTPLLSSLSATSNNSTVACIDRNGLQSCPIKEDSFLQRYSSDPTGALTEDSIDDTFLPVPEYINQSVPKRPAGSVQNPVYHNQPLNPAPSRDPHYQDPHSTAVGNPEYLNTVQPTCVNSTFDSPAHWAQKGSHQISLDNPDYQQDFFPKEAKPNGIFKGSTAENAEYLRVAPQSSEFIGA

SMILES | IC50 [1, 6] [nM] | IC50 [1, 7] [nM] | IC50 [2, 8] [nM] | IC50 [2, 9] [nM] | IC50 [3, 10] [nM] | IC50 [3, 11] [nM] | IC50 [4, 12] [nM] | IC50 [4, 13] [nM] | IC50 [5, 14] [nM] | IC50 [5, 15] [nM] | IC50 [1, 16] [nM] | IC50 [2, 17] [nM] | IC50 [3, 18] [nM] | IC50 [4, 19] [nM] | IC50 [5, 20] [nM]
CO[C@H]1CCN(c2nccc(Nc3cc(N[C@H]4CC[C@@](C)(O)CC4)c(-c4ccn(C(F)F)n4)cn3)n2)C[C@H]1F [Example 111, (1s,4s)-4-((5-(1-(Difluoromethyl)-1H-pyrazol-3-yl)-2-((2-((3R,4S)-3-fluoro-4-methoxypiperidin-1-yl)pyrimidin-4-yl)amino)pyridin-4-yl)amino)-1-methylcyclohexan-1-ol] | 67.2 | 19.7 | 1.6 | 1.4 | > 10000 | 53.7 | 253 | 86.8 | 0.2 | 0.1 | – | – | – | – | –
OC1CCN(Nc2cc(Nc3ccnc(-c4cnn(CC(F)F)c4)n3)ncc2-c2ccn(C(F)F)n2)CC1 [Example 162, 1-((2-((2-(1-(2,2-Difluoroethyl)-1H-pyrazol-4-yl)pyrimidin-4-yl)amino)-5-(1-(difluoromethyl)-1H-pyrazol-3-yl)pyridin-4-yl)amino)piperidin-4-ol] | – | 275 | – | 0.9 | – | 271 | – | 33.4 | – | 0.2 | – | – | – | – | –
O=S(=O)(C1CC1)n1cc(-c2nccc(Nc3cc(NCC4CCCC(O)C4)c(-c4ccn(C(F)F)n4)cn3)n2)cn1 (stereo not shown) [Example 32, 3-(((2-((2-(1-(Cyclopropylsulfonyl)-1H-pyrazol-4-yl)pyrimidin-4-yl)amino)-5-(1-(difluoromethyl)-1H-pyrazol-3-yl)pyridin-4-yl)amino)methyl)cyclohexan-1-ol] | 45.2 | 1.9 | 1.6 | 0.5 | > 10000 | 18.5 | 2.5 | 1 | 2.5 | 0.2 | – | – | – | – | –
O=S(=O)(C1CC1)n1cc(-c2nccc(Nc3cc(NC4CCC(F)(F)C4)c(-c4ccn(C(F)F)n4)cn3)n2)cn1 (stereo not shown) [Example 179, N^2-(2-(1-(Cyclopropylsulfonyl)-1H-pyrazol-4-yl)pyrimidin-4-yl)-N^4-(3,3-difluorocyclopentyl)-5-(1-(difluoromethyl)-1H-pyrazol-3-yl)pyridine-2,4-diamine] | – | 7.4 | – | 3.1 | – | 264 | – | 168 | – | 2.1 | – | – | – | – | –
CS(=O)(=O)Cn1cc(-c2nccc(Nc3cc(N[C@H]4CC[C@@](C)(O)CC4)c(-c4ccn(C(F)F)n4)cn3)n2)cn1 [Example 150, (1s,4s)-4-((5-(1-(Difluoromethyl)-1H-pyrazol-3-yl)-2-((2-(1-((methylsulfonyl)methyl)-1H-pyrazol-4-yl)pyrimidin-4-yl)amino)pyridin-4-yl)amino)-1-methylcyclohexan-1-ol] | – | 14.7 | – | 1.6 | – | 104 | – | 21.2 | – | 1.2 | – | – | – | – | –
O=S(=O)(C1CC1)n1cc(-c2nccc(Nc3cc(NC4CCC(CCF)CC4)c(-c4ccn(C(F)F)n4)cn3)n2)cn1 (stereo not shown) [Example 216, N^2-(2-(1-(Cyclopropylsulfonyl)-1H-pyrazol-4-yl)pyrimidin-4-yl)-5-(1-(difluoromethyl)-1H-pyrazol-3-yl)-N^4-(4-(2-fluoroethyl)cyclohexyl)pyridine-2,4-diamine] | – | 26.5 | – | 25.9 | – | 276 | – | 119 | – | 9.1 | – | – | – | – | –
C[C@]1(O)CC[C@@H](Nc2cc(Nc3ccnc(-c4cnn(S(=O)(=O)C5CC5)c4)n3)ncc2-c2csc(N3CCOCC3)n2)CC1 [Example 120, (1s,4s)-4-((2-((2-(1-(Cyclopropylsulfonyl)-1H-pyrazol-4-yl)pyrimidin-4-yl)amino)-5-(2-morpholinothiazol-4-yl)pyridin-4-yl)amino)-1-methylcyclohexan-1-ol] | 41.7 | 3 | 0.9 | 0.6 | > 10000 | 29.7 | 2.3 | 1.4 | 0.9 | 0.3 | – | – | – | – | –
Cn1ccc(-c2cnc(Nc3ccnc(-c4cnn(S(=O)(=O)C5CC5)c4)n3)cc2N[C@H]2CC[C@@H](N(C)C)CC2)n1 [Example 124, N^2-(2-(1-(Cyclopropylsulfonyl)-1H-pyrazol-4-yl)pyrimidin-4-yl)-N^4-((1s,4s)-4-(dimethylamino)cyclohexyl)-5-(1-methyl-1H-pyrazol-3-yl)pyridine-2,4-diamine] | 9.6 | 0.5 | 0.2 | 0.1 | 801 | 1.1 | 0.6 | 0.4 | 0.1 | 0.1 | – | – | – | – | –
C[C@]1(O)CCCN(c2cc(Nc3ccnc(-c4cnn(S(=O)(=O)C5CC5)c4)n3)ncc2-c2ccn(C(F)F)n2)C1 [Example 107, (S)-1-(2-((2-(1-(Cyclopropylsulfonyl)-1H-pyrazol-4-yl)pyrimidin-4-yl)amino)-5-(1-(difluoromethyl)-1H-pyrazol-3-yl)pyridin-4-yl)-3-methylpiperidin-3-ol] | 346 | – | 2.7 | – | > 10000 | – | 113 | – | 4.6 | – | – | – | – | – | –
C[C@]1(O)CC[C@@H](Nc2nc(Nc3ccnc(-c4cnn(S(=O)(=O)C5CC5)c4)c3)ncc2-c2ccn(C(F)F)n2)CC1 [Example 355, (1s,4s)-4-((2-((2-(1-(Cyclopropylsulfonyl)-1H-pyrazol-4-yl)pyridin-4-yl)amino)-5-(1-(difluoromethyl)-1H-pyrazol-3-yl)pyrimidin-4-yl)amino)-1-methylcyclohexan-1-ol] | – | – | – | – | – | – | – | – | – | – | 13.3 | 0.7 | 64.4 | 11 | 0.3
O=S(=O)(C1CC1)n1cc(-c2cc(Nc3ncc(-c4ccn(CCC(F)(F)F)n4)c(N[C@H]4CC[C@@H](F)CC4)n3)ccn2)cn1 [Example 367, N^2-(2-(1-(Cyclopropylsulfonyl)-1H-pyrazol-4-yl)pyridin-4-yl)-N^4-((1s,4s)-4-fluorocyclohexyl)-5-(1-(3,3,3-trifluoropropyl)-1H-pyrazol-3-yl)pyrimidine-2,4-diamine] | – | – | – | – | – | – | – | – | – | – | 251 | 17.1 | 5000 | 391 | 7.2
Cn1nc(-c2cnc(Nc3ccnc(-c4cnn(S(=O)(=O)C5CC5)c4)n3)cc2N[C@H]2CC[C@@H](F)CC2)cc1C(F)(F)F [Example 175, N^2-(2-(1-(Cyclopropylsulfonyl)-1H-pyrazol-4-yl)pyrimidin-4-yl)-N^4-((1s,4s)-4-fluorocyclohexyl)-5-(1-methyl-5-(trifluoromethyl)-1H-pyrazol-3-yl)pyridine-2,4-diamine] | – | 8 | – | 25.3 | – | 91.9 | – | 41.8 | – | 14.5 | – | – | – | – | –
C[C@]1(O)CC[C@@H](Nc2cc(Nc3ccnc(-c4cnn(CC(F)(F)F)c4)n3)ncc2-c2ccn(CC(F)F)n2)CC1 [Example 344, (1s,4s)-4-((5-(1-(2,2-Difluoroethyl)-1H-pyrazol-3-yl)-2-((2-(1-(2,2,2-trifluoroethyl)-1H-pyrazol-4-yl)pyrimidin-4-yl)amino)pyridin-4-yl)amino)-1-methylcyclohexan-1-ol] | – | – | – | – | – | – | – | – | – | – | 0.2 | 0.4 | 58.6 | 29.5 | 0.4
Cc1nn(-c2cnc(Nc3ccnc(-c4cnn(S(=O)(=O)C5CC5)c4)n3)cc2N[C@H]2CC[C@@](C)(O)CC2)cc1C(F)(F)F [Example 182, (1s,4s)-4-((2-((2-(1-(Cyclopropylsulfonyl)-1H-pyrazol-4-yl)pyrimidin-4-yl)amino)-5-(3-methyl-4-(trifluoromethyl)-1H-pyrazol-1-yl)pyridin-4-yl)amino)-1-methylcyclohexan-1-ol] | – | 116 | – | 0.8 | – | 781 | – | 26.8 | – | 0.8 | – | – | – | – | –
O=S(=O)(C1CC1)n1cc(-c2nccc(Nc3cc(N[C@H]4CC[C@@H](O)CC4)c(-c4ccn(C(F)F)n4)cn3)n2)cn1 [Example 80, (1s,4s)-4-((2-((2-(1-(Cyclopropylsulfonyl)-1H-pyrazol-4-yl)pyrimidin-4-yl)amino)-5-(1-(difluoromethyl)-1H-pyrazol-3-yl)pyridin-4-yl)amino)cyclohexan-1-ol] | 1.4 | – | 0.7 | – | 214 | – | 1.2 | – | 0.8 | – | – | – | – | – | –
CS(=O)(=O)c1ccn(-c2cnc(Nc3ccnc(-c4cnn(S(=O)(=O)C5CC5)c4)n3)cc2N[C@H]2CC[C@@](C)(O)CC2)n1 [Example 183, (1s,4s)-4-((2-((2-(1-(Cyclopropylsulfonyl)-1H-pyrazol-4-yl)pyrimidin-4-yl)amino)-5-(3-(methylsulfonyl)-1H-pyrazol-1-yl)pyridin-4-yl)amino)-1-methylcyclohexan-1-ol] | – | 37.1 | – | 0.8 | – | 624 | – | 42.8 | – | 0.6 | – | – | – | – | –
